In EP4745137A1 (Gluetacs Therapeutics (Shanghai) Co., Ltd., priority 2023, dated 2025):

Assays:
TMD8 = assay: Tumor cell proliferation inhibition (CellTiter-Meiluncell Luminescent Cell Viability Assay), TMD8; settings: Homo sapiens, TMD8, 96 h, read-out: inhibitory activity (IC50, nM) against tumor cells proliferation, TMD8
NCI-H1975 = assay: Tumor cell proliferation inhibition (CellTiter-Meiluncell Luminescent Cell Viability Assay), NCI-H1975; settings: Homo sapiens, NCI-H1975, 96 h, read-out: inhibitory activity (IC50, nM) against tumor cells proliferation, H1975
IKZF2 = biological target: T1, IKZF2 (Homo sapiens, UniProt Q96SW2+Q9UKS7); assay: Western-blot assay of substrate protein degradation in hPBMCs, IKZF2; assay type: cell-based; settings: 24 hours of compound treatment, compounds tested at 50 nM and 500 nM (concentration of the table not stated)
T1 construct: endogenous in cells; host or cells: hPBMCs (Milecell Biotechnologies)

CK1α = biological target: T2, CK1α (Homo sapiens, UniProt P48729+Q96SW2); assay: Western-blot assay of substrate protein degradation in hPBMCs, CK1α; assay type: cell-based; settings: 24 hours of compound treatment, compounds tested at 50 nM and 500 nM (concentration of the table not stated)
T2 construct: endogenous in cells; host or cells: hPBMCs (Milecell Biotechnologies)
T2 sequence (P48729 whole entry): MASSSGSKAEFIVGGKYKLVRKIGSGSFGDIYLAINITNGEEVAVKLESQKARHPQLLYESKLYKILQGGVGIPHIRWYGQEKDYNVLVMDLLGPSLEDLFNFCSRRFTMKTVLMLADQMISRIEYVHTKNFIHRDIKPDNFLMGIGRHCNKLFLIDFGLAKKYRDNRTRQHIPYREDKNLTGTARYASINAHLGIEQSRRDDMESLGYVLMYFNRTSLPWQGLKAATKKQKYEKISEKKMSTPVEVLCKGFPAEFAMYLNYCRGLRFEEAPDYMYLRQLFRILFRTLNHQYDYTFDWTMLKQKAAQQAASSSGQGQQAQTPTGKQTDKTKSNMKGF
T2 sequence (Q96SW2 whole entry): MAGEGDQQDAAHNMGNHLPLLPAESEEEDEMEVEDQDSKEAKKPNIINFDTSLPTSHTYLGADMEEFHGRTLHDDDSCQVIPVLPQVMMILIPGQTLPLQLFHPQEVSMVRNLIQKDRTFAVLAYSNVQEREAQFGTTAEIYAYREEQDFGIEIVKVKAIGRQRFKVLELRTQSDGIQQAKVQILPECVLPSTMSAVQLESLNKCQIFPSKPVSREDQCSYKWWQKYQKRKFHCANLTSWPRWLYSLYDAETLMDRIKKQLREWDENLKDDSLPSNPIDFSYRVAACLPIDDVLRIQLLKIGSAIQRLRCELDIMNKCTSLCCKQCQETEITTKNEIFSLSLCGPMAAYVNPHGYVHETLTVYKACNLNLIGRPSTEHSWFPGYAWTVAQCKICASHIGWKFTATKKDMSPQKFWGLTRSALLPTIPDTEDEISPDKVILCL
T2 sequence (Q16531 whole entry partner): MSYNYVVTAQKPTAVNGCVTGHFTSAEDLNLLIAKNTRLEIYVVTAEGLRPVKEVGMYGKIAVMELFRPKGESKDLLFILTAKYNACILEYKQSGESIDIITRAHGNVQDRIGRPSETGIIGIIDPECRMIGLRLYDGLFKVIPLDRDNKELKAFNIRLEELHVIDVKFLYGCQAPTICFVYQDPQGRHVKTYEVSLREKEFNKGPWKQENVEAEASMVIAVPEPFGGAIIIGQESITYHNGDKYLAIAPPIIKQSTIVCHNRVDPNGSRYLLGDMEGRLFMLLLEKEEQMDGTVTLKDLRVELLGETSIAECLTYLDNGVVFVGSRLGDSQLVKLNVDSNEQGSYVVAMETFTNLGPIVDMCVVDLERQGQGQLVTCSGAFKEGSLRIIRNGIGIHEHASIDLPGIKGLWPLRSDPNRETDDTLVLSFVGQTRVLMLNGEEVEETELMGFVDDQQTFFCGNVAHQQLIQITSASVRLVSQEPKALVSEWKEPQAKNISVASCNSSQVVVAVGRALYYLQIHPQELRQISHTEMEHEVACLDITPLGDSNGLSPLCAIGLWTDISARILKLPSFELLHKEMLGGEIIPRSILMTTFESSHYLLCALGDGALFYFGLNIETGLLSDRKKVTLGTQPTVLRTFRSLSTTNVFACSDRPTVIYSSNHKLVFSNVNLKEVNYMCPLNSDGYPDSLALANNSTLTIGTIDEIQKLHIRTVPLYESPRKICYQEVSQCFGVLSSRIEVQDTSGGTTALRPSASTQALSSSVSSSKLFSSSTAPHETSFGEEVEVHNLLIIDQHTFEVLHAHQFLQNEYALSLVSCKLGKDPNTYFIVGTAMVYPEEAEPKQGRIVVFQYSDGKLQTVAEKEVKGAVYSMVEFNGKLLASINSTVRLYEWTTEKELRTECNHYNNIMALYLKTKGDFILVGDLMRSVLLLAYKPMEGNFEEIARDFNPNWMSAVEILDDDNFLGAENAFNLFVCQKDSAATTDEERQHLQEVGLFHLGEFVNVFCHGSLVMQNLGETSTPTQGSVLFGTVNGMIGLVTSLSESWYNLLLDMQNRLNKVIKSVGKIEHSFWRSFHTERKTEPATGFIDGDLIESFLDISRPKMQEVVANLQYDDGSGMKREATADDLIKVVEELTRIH

IKZF3 = biological target: T3, IKZF3 (Homo sapiens, UniProt Q96SW2+Q9UKT9); assay: Western-blot assay of substrate protein degradation in hPBMCs, IKZF3; assay type: cell-based; settings: 24 hours of compound treatment, compounds tested at 50 nM and 500 nM (concentration of the table not stated)
T3 construct: endogenous in cells; host or cells: hPBMCs (Milecell Biotechnologies)
T3 sequence (Q9UKT9 whole entry): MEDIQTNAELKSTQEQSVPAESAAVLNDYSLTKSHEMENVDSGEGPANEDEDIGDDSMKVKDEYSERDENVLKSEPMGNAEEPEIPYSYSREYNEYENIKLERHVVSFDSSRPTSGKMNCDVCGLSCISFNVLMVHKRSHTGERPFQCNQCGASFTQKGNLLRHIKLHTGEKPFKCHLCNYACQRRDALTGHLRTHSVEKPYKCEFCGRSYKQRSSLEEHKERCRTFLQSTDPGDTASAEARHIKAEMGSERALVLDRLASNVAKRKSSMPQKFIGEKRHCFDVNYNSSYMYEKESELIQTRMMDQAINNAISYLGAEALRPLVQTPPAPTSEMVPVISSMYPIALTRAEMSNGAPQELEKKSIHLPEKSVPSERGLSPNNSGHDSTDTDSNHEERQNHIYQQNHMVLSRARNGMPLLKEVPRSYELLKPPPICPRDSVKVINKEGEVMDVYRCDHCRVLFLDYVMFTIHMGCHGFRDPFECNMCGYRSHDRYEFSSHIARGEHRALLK
T3 sequence (Q96SW2 whole entry): as the sequence (Q96SW2 whole entry) above
T3 sequence (Q16531 whole entry partner): as the sequence (Q16531 whole entry partner) above

IKZF1 = biological target: T4, IKZF1 (Homo sapiens, UniProt Q13422+Q96SW2); assay: Western-blot assay of substrate protein degradation in hPBMCs, IKZF1; assay type: cell-based; settings: 24 hours of compound treatment, compounds tested at 50 nM and 500 nM (concentration of the table not stated)
T4 construct: endogenous in cells; host or cells: hPBMCs (Milecell Biotechnologies)
T4 sequence (Q13422 whole entry): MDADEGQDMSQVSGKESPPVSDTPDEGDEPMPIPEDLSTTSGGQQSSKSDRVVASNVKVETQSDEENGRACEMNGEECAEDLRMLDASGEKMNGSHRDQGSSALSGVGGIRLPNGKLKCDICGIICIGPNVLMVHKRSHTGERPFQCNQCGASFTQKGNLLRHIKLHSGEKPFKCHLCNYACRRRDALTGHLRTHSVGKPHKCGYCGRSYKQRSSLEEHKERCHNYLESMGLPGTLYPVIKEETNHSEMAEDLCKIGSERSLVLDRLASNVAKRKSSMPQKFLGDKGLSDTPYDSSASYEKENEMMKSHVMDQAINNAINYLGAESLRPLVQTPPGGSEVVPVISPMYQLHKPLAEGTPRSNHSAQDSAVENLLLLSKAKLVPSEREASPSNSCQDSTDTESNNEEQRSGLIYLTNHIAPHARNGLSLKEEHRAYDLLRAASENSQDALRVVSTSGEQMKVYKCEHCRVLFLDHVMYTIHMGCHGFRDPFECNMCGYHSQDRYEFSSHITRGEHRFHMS
T4 sequence (Q96SW2 whole entry): as the sequence (Q96SW2 whole entry) above
T4 sequence (Q16531 whole entry partner): as the sequence (Q16531 whole entry partner) above

[1] = tested on: Human breast cancer cells (MDA-MB-231); assay: Tumor cell proliferation inhibition (CellTiter-Meiluncell Luminescent Cell Viability Assay), MDA-MB-231; settings: MDA-MB-231, 96 h, read-out: inhibitory activity (IC50, nM) against tumor cells proliferation, MDA-MB-231
[2] = tested on: Human acute T lymphocytic leukemia cells (Molt-4); assay: Tumor cell proliferation inhibition (CellTiter-Meiluncell Luminescent Cell Viability Assay), Molt-4; settings: MOLT-4, 96 h, read-out: inhibitory activity (IC50, nM) against tumor cells proliferation, Molt 4
WEE1 = biological target: T5, WEE1 (Homo sapiens, UniProt P30291+Q96SW2); assay: Western-blot assay of substrate protein degradation in hPBMCs, WEE1; assay type: cell-based; settings: 24 hours of compound treatment, compounds tested at 50 nM and 500 nM (concentration of the table not stated)
T5 construct: endogenous in cells; host or cells: hPBMCs (Milecell Biotechnologies)
T5 sequence (P30291 whole entry): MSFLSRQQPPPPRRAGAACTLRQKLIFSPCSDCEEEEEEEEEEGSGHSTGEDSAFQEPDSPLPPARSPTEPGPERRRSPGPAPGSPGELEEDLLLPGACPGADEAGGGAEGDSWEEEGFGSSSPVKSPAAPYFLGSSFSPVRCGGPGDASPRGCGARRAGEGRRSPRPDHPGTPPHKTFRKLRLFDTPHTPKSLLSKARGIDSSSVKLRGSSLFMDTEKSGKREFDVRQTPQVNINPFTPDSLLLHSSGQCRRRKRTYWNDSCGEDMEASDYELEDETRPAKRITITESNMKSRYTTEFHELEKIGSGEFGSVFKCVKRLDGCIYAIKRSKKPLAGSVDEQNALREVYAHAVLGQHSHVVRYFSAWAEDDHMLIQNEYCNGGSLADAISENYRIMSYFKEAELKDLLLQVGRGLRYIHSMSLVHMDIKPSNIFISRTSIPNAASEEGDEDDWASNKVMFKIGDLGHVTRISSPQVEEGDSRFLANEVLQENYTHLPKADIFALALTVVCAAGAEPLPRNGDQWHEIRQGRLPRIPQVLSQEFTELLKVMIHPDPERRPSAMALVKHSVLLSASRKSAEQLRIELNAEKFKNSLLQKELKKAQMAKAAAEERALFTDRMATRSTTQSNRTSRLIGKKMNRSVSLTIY
T5 sequence (Q96SW2 whole entry): as the sequence (Q96SW2 whole entry) above
T5 sequence (Q16531 whole entry partner): as the sequence (Q16531 whole entry partner) above

[3] = biological target: T6, human Cereblon WT GST-tagged protein (Homo sapiens, UniProt Q96SW2); assay: CRBN-binding affinity by HTRF (CEREBLON BINDING kit); settings: HTRF inhibitory activity, CEREBLON BINDING kit; read-out: HTRF IC50
T6 construct: purchased CISBIO 64BDCRBNPEH
T6 sequence (Q96SW2 whole entry): as the sequence (Q96SW2 whole entry) above

GSPT1 = biological target: T7, GSPT1 (Homo sapiens, UniProt P15170+Q96SW2); assay: Western-blot assay of substrate protein degradation in hPBMCs, GSPT1; assay type: cell-based; settings: 24 hours of compound treatment, compounds tested at 50 nM and 500 nM (concentration of the table not stated)
T7 construct: endogenous in cells; host or cells: hPBMCs (Milecell Biotechnologies)
T7 sequence (P15170 whole entry): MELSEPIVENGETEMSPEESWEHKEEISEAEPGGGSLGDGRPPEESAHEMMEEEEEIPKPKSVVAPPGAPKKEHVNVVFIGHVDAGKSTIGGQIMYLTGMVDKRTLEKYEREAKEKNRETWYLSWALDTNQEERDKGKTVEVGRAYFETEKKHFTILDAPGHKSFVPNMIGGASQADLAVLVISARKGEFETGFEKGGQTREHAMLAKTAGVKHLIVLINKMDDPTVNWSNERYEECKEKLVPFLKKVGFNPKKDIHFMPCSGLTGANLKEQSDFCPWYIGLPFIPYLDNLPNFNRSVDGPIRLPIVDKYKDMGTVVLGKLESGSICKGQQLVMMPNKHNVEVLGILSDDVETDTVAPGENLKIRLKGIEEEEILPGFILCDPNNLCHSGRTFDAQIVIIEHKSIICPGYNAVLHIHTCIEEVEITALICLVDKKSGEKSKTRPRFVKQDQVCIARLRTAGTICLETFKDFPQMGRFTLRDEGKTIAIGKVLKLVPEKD
T7 sequence (Q96SW2 whole entry): as the sequence (Q96SW2 whole entry) above
T7 sequence (Q16531 whole entry partner): as the sequence (Q16531 whole entry partner) above

| Compound | IC50 (TMD8) | IC50 (NCI-H1975) | IKZF2 substrate protein remaining % (IKZF2) | CK1a substrate protein remaining % (CK1α) | IKZF3 substrate protein remaining % (IKZF3) | IKZF 1 substrate protein remaining % (IKZF1) | IC50 [1] | IC50 [2] | Weel substrate protein remaining % (WEE1) | IC50 [3] | GSPT1 substrate protein remaining % (GSPT1) |
| --- | --- | --- | --- | --- | --- | --- | --- | --- | --- | --- | --- |
| O=C1CCC(N2Cc3cc(CN4CC=C(c5ncccc5F)CC4)ccc3C2=O)C(=O)N1 (stereo not shown) [GT-04689, 3-(5-((3-fluoro-3',6'-dihydro-[2,4'-bipyridin]-1'(2'H)-yl)methyl)-1-oxoisoindolin-2-yl)piperidine-2,6-dione] | 50 to 100 nM | 50 to 100 nM | A (0% ≤ substrate protein remaining % ≤ 80%) | A (0% ≤ substrate protein remaining % ≤ 80%) | A (0% ≤ substrate protein remaining % ≤ 80%) | A (0% ≤ substrate protein remaining % ≤ 80%) | 10 to 50 nM | 5 to 10 nM | A (0% ≤ substrate protein remaining % ≤ 80%) | < 500 nM | A (0% ≤ substrate protein remaining % ≤ 80%) |
| Cc1ccsc1C1=CCN(Cc2cc(F)c3c(c2)CN(C2CCC(=O)NC2=O)C3=O)CC1 (stereo not shown) [GT-04730, 3-(7-fluoro-5-((4-(3-methylthiophen-2-yl)-3,6-dihydropyridin-1(2H)-yl)methyl)-1-oxoisoindolin-2-yl)piperidine-2,6-dione] | 10 to 50 nM | 10 to 50 nM | A (0% ≤ substrate protein remaining % ≤ 80%) | A (0% ≤ substrate protein remaining % ≤ 80%) | A (0% ≤ substrate protein remaining % ≤ 80%) | A (0% ≤ substrate protein remaining % ≤ 80%) | 10 to 50 nM | 1 to 5 nM | A (0% ≤ substrate protein remaining % ≤ 80%) | 500 to 1000 nM | A (0% ≤ substrate protein remaining % ≤ 80%) |
| O=C1CCC(N2Cc3cc(CN4CCC(c5c[nH]c6cc(F)ccc56)CC4)ccc3C2=O)C(=O)N1 (stereo not shown) [GT-04713, 3-(5-((4-(6-fluoro-1H-indol-3-yl)piperidin-1-yl)methyl)-1-oxoisoindolin-2-yl)piperidine-2,6-dione] | 10 to 50 nM | 5 to 10 nM | A (0% ≤ substrate protein remaining % ≤ 80%) | A (0% ≤ substrate protein remaining % ≤ 80%) | A (0% ≤ substrate protein remaining % ≤ 80%) | A (0% ≤ substrate protein remaining % ≤ 80%) | 1 to 5 nM | 1 to 5 nM | A (0% ≤ substrate protein remaining % ≤ 80%) | 500 to 1000 nM | A (0% ≤ substrate protein remaining % ≤ 80%) |
| O=C1CCC(N2Cc3cc(CN4CC=C(c5ncnc6sccc56)CC4)ccc3C2=O)C(=O)N1 (stereo not shown) [GT-04692, 3-(1-oxo-5-((4-(thieno[2,3-d]pyrimidin-4-yl)-3,6-dihydropyridin-1(2H)-yl)methyl)isoindolin-2-yl)piperidine-2,6-dione] | 10 to 50 nM | 50 to 100 nM | A (0% ≤ substrate protein remaining % ≤ 80%) | A (0% ≤ substrate protein remaining % ≤ 80%) | A (0% ≤ substrate protein remaining % ≤ 80%) | A (0% ≤ substrate protein remaining % ≤ 80%) | 10 to 50 nM | 1 to 5 nM | A (0% ≤ substrate protein remaining % ≤ 80%) | < 500 nM | A (0% ≤ substrate protein remaining % ≤ 80%) |
| O=C1CCC(N2Cc3cc(CN4CC=C(c5c[nH]c6ncccc56)CC4)ccc3C2=O)C(=O)N1 (stereo not shown) [GT-04602, 3-(5-((4-(1H-pyrrolo[2,3-b]pyridin-3-yl)-3,6-dihydropyridin-1(2H)-yl)methyl)-1-oxoisoindolin-2-yl)piperidine-2,6-dione] | 10 to 50 nM | 10 to 50 nM | A (0% ≤ substrate protein remaining % ≤ 80%) | A (0% ≤ substrate protein remaining % ≤ 80%) | A (0% ≤ substrate protein remaining % ≤ 80%) | A (0% ≤ substrate protein remaining % ≤ 80%) | 10 to 50 nM | 1 to 5 nM | A (0% ≤ substrate protein remaining % ≤ 80%) | < 500 nM | A (0% ≤ substrate protein remaining % ≤ 80%) |
| Cc1ccc(C2CCN(Cc3ccc4c(c3)CN(C3CCC(=O)NC3=O)C4=O)CC2)s1 (stereo not shown) [GT-04573, 3-(5-((4-(5-methylthiophen-2-yl)piperidin-1-yl)methyl)-1-oxoisoindolin-2-yl)piperidine-2,6-dione] | 50 to 100 nM | 50 to 100 nM | A (0% ≤ substrate protein remaining % ≤ 80%) | A (0% ≤ substrate protein remaining % ≤ 80%) | A (0% ≤ substrate protein remaining % ≤ 80%) | A (0% ≤ substrate protein remaining % ≤ 80%) | 10 to 50 nM | 5 to 10 nM | A (0% ≤ substrate protein remaining % ≤ 80%) | 1000 to 1500 nM | A (0% ≤ substrate protein remaining % ≤ 80%) |
| O=C1CCC(N2Cc3cc(CN4CCC(c5noc6cc(F)ccc56)CC4)c(F)cc3C2=O)C(=O)N1 (stereo not shown) [GT-04766, 3-(6-fluoro-5-((4-(6-fluorobenzo[d]isoxazol-3-yl)piperidin-1-yl)methyl)-1-oxoisoindolin-2-yl)piperidine-2,6-dione] | 10 to 50 nM | 10 to 50 nM | – | – | – | – | 10 to 50 nM | 1 to 5 nM | – | 1500 to 1900 nM | – |
| Cc1sc2ncnc(C3=CCN(Cc4ccc5c(c4)CN(C4CCC(=O)NC4=O)C5=O)CC3)c2c1C (stereo not shown) [GT-04727, 3-(5-((4-(5,6-dimethylthieno[2,3-d]pyrimidin-4-yl)-3,6-dihydropyridin-1(2H)-yl)methyl)-1-oxoisoindolin-2-yl)piperidine-2,6-dione] | 500 to 1000 nM | – | B (80%< substrate protein remaining %≤ 100%) | A (0% ≤ substrate protein remaining % ≤ 80%) | A (0% ≤ substrate protein remaining % ≤ 80%) | A (0% ≤ substrate protein remaining % ≤ 80%) | 100 to 500 nM | 10 to 50 nM | A (0% ≤ substrate protein remaining % ≤ 80%) | < 500 nM | A (0% ≤ substrate protein remaining % ≤ 80%) |
| O=C1CCC(N2Cc3cc(CN4CCN(c5c[nH]c6ncccc56)CC4)ccc3C2=O)C(=O)N1 (stereo not shown) [GT-04601, 3-(5-((4-(1H-pyrrolo[2,3-b]pyridin-3-yl)piperazin-1-yl)methyl)-1-oxoisoindolin-2-yl)piperidine-2,6-dione] | 500 to 1000 nM | – | B (80%< substrate protein remaining %≤ 100%) | A (0% ≤ substrate protein remaining % ≤ 80%) | A (0% ≤ substrate protein remaining % ≤ 80%) | A (0% ≤ substrate protein remaining % ≤ 80%) | 500 to 1000 nM | 100 to 500 nM | A (0% ≤ substrate protein remaining % ≤ 80%) | < 500 nM | A (0% ≤ substrate protein remaining % ≤ 80%) |
